# Data: ChEMBL document CHEMBL1201862, “PubChem BioAssay data set” (2004)
# The source made the active and inactive calls.
# How the values were obtained:
# [1] = cells
# [2] = Shn3 3'UTR reporter inhibitors, dose response, cell-based, Clone20 osteoblasts, firefly luciferase, cherry-picked (AID 624132); assay type: functional;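 note: firefly luciferase luminescence from reporter carrying the Shn3 3'UTR in osteoblasts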
# [3] = cytotoxicity in HPDE-C7 cells, cell-based, fluorescence, HTS (AID 430); assay type: functional; settings: Homo sapiens
# [4] = biological target: Luciferin 4-monooxygenase (Photinus pyralis, UniProt P08659); test: Counter Screen for Luciferase-based Assay Positives. [Related pubchem assays: 620, 618, 411 ]
# [5] = growth suppression of PTEN-null colon cells, dose response, cell-based, HCT116 PTEN knockout (AID 1047); assay type: functional;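 note: HCT116 colon tumor cells with PTEN knocked out; cells exposed to compound for 60 hours before readout; potency for loss of cell viability measured by luminescence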
# [6] = HepG2 cell cytotoxicity, dose response, cytotoxicity control for Shn3 inhibitor project, CellTiter-Glo, cherry-picked (AID 624134); assay type: functional, cell-based
# [7] = cytotoxicity in KRAS-transformed pancreatic duct cells, primary screen, cell-based, fluorescence, HTS (AID 431); assay type: functional; settings: Homo sapiens;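 note: cell line used: HPDE-C7K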
# [8] = biological target: T1, Protein RecA (Mycobacterium tuberculosis, UniProt P9WHJ3); test: Fluorescence Cell-Free Homogeneous Dose Retest to Identify Inhibitors of RecA-Intein Splicing Activity. [Related pubchem assays (depositor defined):AID2097, AID2223, AID489010, AID492950]; assay type: functional
# T1 sequence (P9WHJ3 whole entry): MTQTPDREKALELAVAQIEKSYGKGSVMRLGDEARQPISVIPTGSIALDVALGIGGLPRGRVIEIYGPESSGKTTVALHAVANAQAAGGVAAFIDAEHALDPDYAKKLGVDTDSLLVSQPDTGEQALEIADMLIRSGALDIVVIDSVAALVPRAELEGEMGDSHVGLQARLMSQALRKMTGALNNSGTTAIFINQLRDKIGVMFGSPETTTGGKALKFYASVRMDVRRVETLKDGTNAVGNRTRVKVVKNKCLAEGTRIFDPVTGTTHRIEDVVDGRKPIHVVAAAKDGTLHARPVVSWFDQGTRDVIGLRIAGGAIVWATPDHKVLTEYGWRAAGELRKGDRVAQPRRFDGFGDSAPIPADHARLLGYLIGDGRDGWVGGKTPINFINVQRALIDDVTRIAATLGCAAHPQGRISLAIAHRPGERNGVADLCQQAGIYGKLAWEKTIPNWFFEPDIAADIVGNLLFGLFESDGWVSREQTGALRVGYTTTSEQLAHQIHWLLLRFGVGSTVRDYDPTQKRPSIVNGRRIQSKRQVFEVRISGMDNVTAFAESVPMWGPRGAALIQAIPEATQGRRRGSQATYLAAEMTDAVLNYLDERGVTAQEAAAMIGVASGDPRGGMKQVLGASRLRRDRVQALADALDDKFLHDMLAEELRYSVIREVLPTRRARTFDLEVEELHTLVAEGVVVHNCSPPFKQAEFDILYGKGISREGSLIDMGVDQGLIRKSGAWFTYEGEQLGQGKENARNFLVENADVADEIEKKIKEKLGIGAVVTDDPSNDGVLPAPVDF
# [9] = cells; assay type: functional, cell-based
# [10] = tested on: HT-1080; test: cytotoxicity in HT1080 fibrosarcoma cells, cell-based, fluorescence readout (AID 620); assay type: functional; settings: Homo sapiens
# [11] = biological target: T2, Replicative DNA helicase DnaB (Mycobacterium tuberculosis, UniProt P9WMR3); test: DnaB intein splicing inhibitors, dose response, biochemical, cell-free fluorescence (AID 449749); assay type: functional
# T2 sequence (P9WMR3 whole entry): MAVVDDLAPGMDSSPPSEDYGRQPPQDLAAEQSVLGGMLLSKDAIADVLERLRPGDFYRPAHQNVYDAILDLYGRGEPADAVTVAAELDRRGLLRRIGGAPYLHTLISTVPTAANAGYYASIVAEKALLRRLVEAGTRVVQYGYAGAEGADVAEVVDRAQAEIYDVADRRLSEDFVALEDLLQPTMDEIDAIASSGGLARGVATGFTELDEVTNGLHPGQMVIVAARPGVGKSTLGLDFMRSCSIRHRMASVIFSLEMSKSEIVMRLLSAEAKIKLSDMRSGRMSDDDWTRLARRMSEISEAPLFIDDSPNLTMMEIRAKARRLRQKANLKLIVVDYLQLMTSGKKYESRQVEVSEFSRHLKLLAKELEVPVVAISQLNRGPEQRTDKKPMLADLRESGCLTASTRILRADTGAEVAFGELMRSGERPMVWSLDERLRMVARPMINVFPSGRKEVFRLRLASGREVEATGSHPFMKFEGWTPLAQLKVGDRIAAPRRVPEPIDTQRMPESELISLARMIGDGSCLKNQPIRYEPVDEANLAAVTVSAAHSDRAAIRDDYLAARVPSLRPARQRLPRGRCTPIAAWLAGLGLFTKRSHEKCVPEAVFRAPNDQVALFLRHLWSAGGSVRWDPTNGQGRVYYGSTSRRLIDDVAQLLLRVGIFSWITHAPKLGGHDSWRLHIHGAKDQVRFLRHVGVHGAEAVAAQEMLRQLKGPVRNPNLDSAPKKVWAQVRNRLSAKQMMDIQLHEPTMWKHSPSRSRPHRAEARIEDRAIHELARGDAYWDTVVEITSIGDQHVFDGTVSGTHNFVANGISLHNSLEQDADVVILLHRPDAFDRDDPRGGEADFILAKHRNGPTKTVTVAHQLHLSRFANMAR
# [12] = control 3'UTR Renilla luciferase suppression, dose response, counter-screen for Shn3 inhibitor project, cell-based, Clone20-Shn3RL, cherry-picked (AID 624133); assay type: functional
# [13] = cells; assay type: functional, cell-based; remark: listed apart in the source
# [14] = growth suppression of beta-catenin-knockout colon cells, dose response, cell-based, HCT116, human colon tumor (AID 1045); assay type: functional;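 note: HCT116 colon tumor cells with beta catenin knocked out; cells exposed to compound for 60 hours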
# Sequence of Luciferin 4-monooxygenase (P08659 whole entry): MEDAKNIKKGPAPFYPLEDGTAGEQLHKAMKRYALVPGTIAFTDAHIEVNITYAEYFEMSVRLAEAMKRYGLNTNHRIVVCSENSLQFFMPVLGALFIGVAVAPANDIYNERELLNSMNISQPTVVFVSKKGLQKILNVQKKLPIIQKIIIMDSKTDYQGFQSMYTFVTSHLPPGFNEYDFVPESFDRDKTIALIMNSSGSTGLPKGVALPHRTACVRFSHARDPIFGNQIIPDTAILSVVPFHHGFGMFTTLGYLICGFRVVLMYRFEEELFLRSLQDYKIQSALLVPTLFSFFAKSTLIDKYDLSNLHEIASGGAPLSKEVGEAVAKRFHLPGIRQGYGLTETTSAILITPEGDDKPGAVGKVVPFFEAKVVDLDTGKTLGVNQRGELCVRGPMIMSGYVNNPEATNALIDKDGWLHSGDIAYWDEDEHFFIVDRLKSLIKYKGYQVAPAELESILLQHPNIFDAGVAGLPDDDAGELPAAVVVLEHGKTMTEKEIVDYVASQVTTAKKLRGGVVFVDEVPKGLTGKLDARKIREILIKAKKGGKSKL
Structure (SMILES),IC50 [1],AC50 [2],EC50 [3],EC50 [4],EC50 [5],AC50 [6],EC50 [7],EC50 [8],EC50 [9],EC50 [10],AC50 [11],AC50 [12],EC50 [13],EC50 [14]
COc1ccc(S(=O)(=O)NC(C)(C)C)cc1-c1nnc2c3ccccc3c(C)nn12,8.97 µM (active),–,–,–,–,–,–,–,–,–,–,–,–,–
COc1ccccc1-c1cc(C(F)(F)F)nc(S(=O)(=O)CCCC(=O)N2CCOCC2)n1,–,3.02 µM (active),9.95 µM (active),4.85 µM (active),19.2 µM (active),23.2 µM (active),6.34 µM (active),4.26 µM (active),> 350 µM (not active),30.8 µM (active),8.15 µM (active),10.2 µM (active),> 350 µM (not active),34.4 µM (active)
